Test results from US20230210999A1, “TARGETED PROTEASE DEGRADATION (TED) PLATFORM” (EUBULUS BIOTHERAPEUTICS INC., priority 2020, published 2023).
Where two headings read alike, the source gives them in different places.

Experiments:
Format in all cases: cell-based, human
PC-3 = experiment: Cell proliferation experiment, PC-3; conditions: read-out: Inhibitory activity IC50 on PC-3
Method in brief: (§1)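 IC50 values derive from a four-parameter logistic fit of Alamar blue fluorescence. Cells in logarithmic growth, plated in 96-well format, are treated for 72 h with compound diluted 5-fold serially, two wells per concentration.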

MDA-MB-231 cells = experiment: Cell proliferation experiment, MDA-MB-231; conditions: read-out: Inhibitory activity IC50 on MDA-MB-231
Method in brief: as §1

NCIH82 cells = experiment: Cell proliferation experiment, NCI-H82; conditions: read-out: Inhibitory activity IC50 on NCI-H82
Method in brief: as §1

MV4;11 cells = experiment: Cell proliferation experiment (Alamar blue, 72 h), MV4;11; conditions: read-out: Inhibitory activity IC50 on MV4;11
Method in brief: as §1

[1] = Homo sapiens, MDA-MB-231, MDA-MB-231 cells
[2] = Homo sapiens, NCI-H82, NCI-H82 cells
[3] = Homo sapiens, MV4-11, MV4;11 cells

IC50 (PC-3; Homo sapiens, PC-3, PC-3 cells) | IC50 (MDA-MB-231 cells; [1]) | IC50 (NCIH82 cells; [2]) | IC50 (MV4;11 cells; [3]) | IC50 (PC-3; PC-3 cells) | IC50 (MDA-MB-231 cells; MDA-MB-231 cells) | IC50 (NCIH82 cells; NCI-H82 cells) | IC50 (MV4;11 cells; MV4;11 cells) | Structure (SMILES)
100 to 1000 nM | > 1000 nM | 10 to 100 nM | < 10 nM | – | – | – | – | CNC(=O)c1ccccc1Nc1nc(Nc2ccc(N3CCN(C(=O)NCCCOCCNCCC#Cc4cccc5c4CN(C4CCC(=O)NC4=O)C5=O)CC3)cc2)ncc1Cl (centres unmarked) [UB-181111]
> 1000 nM | > 1000 nM | 100 to 1000 nM | < 10 nM | – | – | – | – | CNC(=O)c1ccccc1Nc1nc(Nc2ccc(N3CCN(C(=O)N[C@H]4CC[C@@H](NCCOCCC#Cc5cccc6c5CN(C5CCC(=O)NC5=O)C6=O)CC4)CC3)cc2)ncc1C#N (some centres unmarked) [UB-181112]
– | – | 100 to 1000 nM | < 10 nM | > 1000 nM | > 1000 nM | – | – | CNC(=O)c1ccccc1Nc1nc(Nc2ccc(N3CCN(C(=O)N[C@H]4CC[C@@H](NCCOCCC#Cc5ccc6c(c5)CN(C5CCC(=O)NC5=O)C6=O)CC4)CC3)cc2)ncc1C#N (some centres unmarked) [UB-181114]
> 1000 nM | > 1000 nM | > 1000 nM | 100 to 1000 nM | – | – | – | – | CNC(=O)c1ncccc1Nc1nc(Nc2ccc(N3CCN(C(=O)N[C@H]4CC[C@@H](NCCOCCC#Cc5cccc6c5CN(C5CCC(=O)NC5=O)C6=O)CC4)CC3)cc2)ncc1C#N (some centres unmarked) [UB-181116]
> 1000 nM | > 1000 nM | > 1000 nM | 10 to 100 nM | – | – | – | – | CNC(=O)c1ncccc1Nc1nc(Nc2ccc(N3CCN(C(=O)N[C@H]4CC[C@@H](NCCOCCC#Cc5ccc6c(c5)CN(C5CCC(=O)NC5=O)C6=O)CC4)CC3)cc2)ncc1C#N (some centres unmarked) [UB-181117]
– | – | – | – | 10 to 100 nM | 100 to 1000 nM | 100 to 1000 nM | < 10 nM | CNC(=O)c1ccccc1Nc1nc(Nc2ccc(N3CCN(C(=O)N[C@H]4CC[C@@H](NCCOCCC#Cc5cccc6c5CN(C5CCC(=O)NC5=O)C6=O)CC4)CC3)cc2)ncc1Cl (some centres unmarked) [UB-181119]
– | – | – | – | 10 to 100 nM | 100 to 1000 nM | 100 to 1000 nM | < 10 nM | CNC(=O)c1ccccc1Nc1nc(Nc2ccc(N3CCN(C(=O)N[C@H]4CC[C@@H](NCCOCCC#Cc5cccc6c5CN(C5CCC(=O)NC5=O)C6=O)CC4)CC3)cc2)ncc1Cl (some centres unmarked) [UB-181120]
– | – | – | – | 10 to 100 nM | 100 to 1000 nM | 100 to 1000 nM | < 10 nM | CNC(=O)c1ccccc1Nc1nc(Nc2ccc(N3CCN(C(=O)N[C@H]4CC[C@@H](NCCOCCC#Cc5ccc6c(c5)CN(C5CCC(=O)NC5=O)C6=O)CC4)CC3)cc2)ncc1C#N (some centres unmarked) [UB-181123]
10 to 100 nM | > 1000 nM | > 1000 nM | 10 to 100 nM | – | – | – | – | CNC(=O)c1ncccc1Nc1nc(Nc2ccc(N3CCN(C(=O)N[C@H]4CC[C@H](NCCOCCC#Cc5cccc6c5CN(C5CCC(=O)NC5=O)C6=O)CC4)CC3)cc2)ncc1C#N (some centres unmarked) [UB-181124]
100 to 1000 nM | > 1000 nM | > 1000 nM | 10 to 100 nM | – | – | – | – | CNC(=O)c1ccccc1Nc1nc(Nc2ccc(N3CCN(C(=O)NC4CCC(NCCOCCC#Cc5ccc6c(c5)CN(C5CCC(=O)NC5=O)C6=O)CC4)CC3)cc2)ncc1C#N (centres unmarked) [UB-181125]
> 1000 nM | > 1000 nM | > 1000 nM | < 10 nM | – | – | – | – | CNC(=O)c1ncccc1Nc1nc(Nc2ccc(N3CCN(C(=O)NC4CCC(NCCOCCC#Cc5cccc6c5CN(C5CCC(=O)NC5=O)C6=O)CC4)CC3)cc2)ncc1Cl (centres unmarked) [UB-181128]
> 1000 nM | > 1000 nM | 100 to 1000 nM | 10 to 100 nM | – | – | – | – | CNC(=O)c1ncccc1Nc1nc(Nc2ccc(N3CCN(C(=O)NC4CCC(NCCOCCC#Cc5ccc6c(c5)CN(C5CCC(=O)NC5=O)C6=O)CC4)CC3)cc2)ncc1Cl (centres unmarked) [UB-181129]
100 to 1000 nM | 100 to 1000 nM | 100 to 1000 nM | < 10 nM | – | – | – | – | N#Cc1ccccc1Nc1nc(Nc2ccc(N3CCN(C(=O)N[C@H]4CC[C@@H](NCCOCCC#Cc5cccc6c5CN(C5CCC(=O)NC5=O)C6=O)CC4)CC3)cc2)ncc1Cl (some centres unmarked) [UB-181132]
100 to 1000 nM | > 1000 nM | 100 to 1000 nM | 10 to 100 nM | – | – | – | – | N#Cc1ccccc1Nc1nc(Nc2ccc(N3CCN(C(=O)N[C@H]4CC[C@@H](NCCOCCC#Cc5ccc6c(c5)CN(C5CCC(=O)NC5=O)C6=O)CC4)CC3)cc2)ncc1Cl (some centres unmarked) [UB-181133]
